Results on 14 compounds are retold here after patent US9493478B2, “Fused ring compound containing furan or salt thereof and pharmaceutical composition comprising same” (YUHAN CORPORATION, priority 2012, dated 2016).

Holding throughout (assay type): biochemical
One test addresses PI3Kγ (p120γ)(h) (Homo sapiens, UniProt P48736). Description: Assay for phosphatidylinositol 3-kinase gamma (PI3Kγ) activity, PI3K-HTRF kit. Conditions: TR-FRET; enzyme 1.45 μg/ml, 10 μM PIP2, 10 μM ATP. On the procedure: (§1) The compounds of the present invention were assayed for the activity of phosphatidylinositol 3-kinase gamma (PI3Kγ) by using a PI3K enzyme-homogenous time resolved fluorescence (PI3K-HTRF) kit, which is available from Upstate (Millipore Co, Billerica, Mass., USA).
(§2) Three kinds of buffer solutions including a phosphorylation reaction solution (a reaction buffer containing 40 mM MgCl2 which is available from Upstate was diluted 4 times and added with 5 mM DTT), a stop solution (STOP A and B solutions which are available from Upstate were mixed at a ratio of 3:1) and a fluorescence detection solution (Detection solutions A, B and C which are available from Upstate were mixed at a ratio of 1:1:18) were prepared. 1 mM of PIP2 substrate (phosphatidylinositol 4,5 biphosphate; Upstate), PI3Kγ (#14-558; Upstate) enzyme and 10 mM ATP (Sigma Aldrich Co., St. Louis, Mo., USA) were prepared. Each of PI3Kγ, 1 mM PIP2 and 10 mM ATP was diluted to 2.9 μg/ml (final reaction concentration: 1.45 μg/ml), 20 μM (final reaction concentration: 10 μM) and 40 μM (final reaction concentration: 10 μM), respectively. The buffer solution used for dilution and preparation process was the phosphorylation reaction solution. The stop solution was used for the termination of phosphorylation reaction, and the fluorescence detection solution was used for the detection of time-resolved fluorescence signals.
(§3) Each test sample was transferred to a 384 well low flange white flat bottom microplate (#3572, Corning Life Sciences, Lowell, Mass., USA) by using a multi 8-channel (Pipetman Neo multi 8×20, Gilson, Middleton, Wis., USA) to make a final phosphorylation reaction volume of 20 μl per each well. For the negative control, 5 μl of 14.4% DMSO and 10 μl of PIP2 substration solution were used, and 5 μl of 14.4% DMSO and 10 μl of PIP2/PI3Kγ mixed solution were used as the positive control. For the test group, 5 μl of a solution prepared by dissolving the compound obtained in Example in DMSO and 10 μl of PIP2/PI3Kγ mixed solution were used. Before the initiation of the phosphorylation reaction, sample compounds were pretreated with the enzyme for approximately 10 minutes, and then the phosphorylation reaction was induced by adding 5 μl of ATP. Since each of the test compound and ATP takes up 25% of the total volume, and PIP2 and PI3Kγ take up 50% of the total volume during the reaction, each solution was concentrated 4 and 2 times, respectively, before mixing the solutions. Subsequently, the test sample was gently shook for 3 minutes and subjected to a phosphorylation reaction for 90 minutes at room temperature, which was then added with 5 μl of the stop solution to terminate the phosphorylation reaction. In order to induce a time-resolved fluorescence reaction, 5 μl of the fluorescence detection solution was added to the sample. The fluorescence detection solution contains biotin-phosphatidylinositol 3,4,5-triphosphate (PIP3), streptavidin-labeled Allopycocyanin (APC) and europium-labeled Pleckstrin homology domain (the PIP3 binds to PH domain), and the time-resolved fluorescence reaction is induced by a series of reaction of PH domain and PIP3, and biotin and streptavidin. The sample was left to stand for 6 hours at room temperature, and the time-resolved fluorescence resonance energy transfer (TR-FRET) rate was measured (emission wavelength: 665 nm, 620 nm, excitation wavelength: 340 nm) by using a Flexstation3 Micro plate reader (Molecular Devices, USA). TR-FRET Rate and TR-Inhibition Rate were calculated based on Equations 1 and 2 below, and the results are expressed in IC50, which is the concentration of a compound that inhibits 50% of PI3Kγ activity in vitro. TR-FRET Rate=(665 nm emission wavelength/620 nm emission wavelength)×10000 <Equation 1> TR-FRET Inhibition Rate=[(TR-FRET Rate of Sample−TR-FRET Rate of Negative Control)/(TR-FRET Rate of Positive Control−TR-FRET Rate of Negative Control)]×100 <Equation 2>
(Time-resolved FRET reads energy transfer from a long-lived donor to a nearby acceptor.)

In the next test the target is PI3Kα (p110α/p85α)(h) (Homo sapiens, UniProt P42336). Put plainly: Assay for phosphatidylinositol 3-kinase alpha (PI3Kα) activity, PI3K-HTRF kit. Conditions: TR-FRET; enzyme 0.3625 μg/ml, 10 μM PIP2, 10 μM ATP. On the procedure: [The source words this procedure for another target and says it was used here with some conditions changed.] as §1, §2, §3
Chain of PI3Kα (p110α/p85α)(h) (P42336 whole entry): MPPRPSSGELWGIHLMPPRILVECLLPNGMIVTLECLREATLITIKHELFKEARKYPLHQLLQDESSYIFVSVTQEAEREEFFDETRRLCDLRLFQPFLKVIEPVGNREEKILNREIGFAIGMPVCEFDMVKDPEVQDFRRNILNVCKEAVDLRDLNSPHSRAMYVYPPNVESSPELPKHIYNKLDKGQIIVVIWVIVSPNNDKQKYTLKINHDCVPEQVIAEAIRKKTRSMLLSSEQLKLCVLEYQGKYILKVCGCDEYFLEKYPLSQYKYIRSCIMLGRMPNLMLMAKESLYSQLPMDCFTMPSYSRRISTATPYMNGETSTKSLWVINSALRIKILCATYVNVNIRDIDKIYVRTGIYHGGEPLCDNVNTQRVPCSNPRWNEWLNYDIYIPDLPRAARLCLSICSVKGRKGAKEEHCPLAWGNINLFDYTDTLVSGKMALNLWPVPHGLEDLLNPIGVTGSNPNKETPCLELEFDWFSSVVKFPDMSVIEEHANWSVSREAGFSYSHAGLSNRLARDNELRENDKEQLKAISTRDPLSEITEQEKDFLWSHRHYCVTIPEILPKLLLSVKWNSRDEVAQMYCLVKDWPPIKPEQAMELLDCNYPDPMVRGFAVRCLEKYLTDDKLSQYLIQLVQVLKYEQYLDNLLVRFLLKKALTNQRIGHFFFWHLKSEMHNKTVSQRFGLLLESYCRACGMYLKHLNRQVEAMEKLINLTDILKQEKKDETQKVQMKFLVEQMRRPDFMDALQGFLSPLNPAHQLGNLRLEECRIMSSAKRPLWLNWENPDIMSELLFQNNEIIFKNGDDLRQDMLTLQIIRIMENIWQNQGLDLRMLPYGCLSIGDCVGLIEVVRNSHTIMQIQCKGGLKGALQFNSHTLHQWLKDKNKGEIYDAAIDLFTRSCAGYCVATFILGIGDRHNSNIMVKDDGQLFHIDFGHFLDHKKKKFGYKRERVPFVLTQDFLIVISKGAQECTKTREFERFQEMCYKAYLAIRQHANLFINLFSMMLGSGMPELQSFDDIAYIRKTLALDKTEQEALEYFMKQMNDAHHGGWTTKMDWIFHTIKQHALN
Chain of PI3Kα (p110α/p85α)(h) (P27986 whole entry partner): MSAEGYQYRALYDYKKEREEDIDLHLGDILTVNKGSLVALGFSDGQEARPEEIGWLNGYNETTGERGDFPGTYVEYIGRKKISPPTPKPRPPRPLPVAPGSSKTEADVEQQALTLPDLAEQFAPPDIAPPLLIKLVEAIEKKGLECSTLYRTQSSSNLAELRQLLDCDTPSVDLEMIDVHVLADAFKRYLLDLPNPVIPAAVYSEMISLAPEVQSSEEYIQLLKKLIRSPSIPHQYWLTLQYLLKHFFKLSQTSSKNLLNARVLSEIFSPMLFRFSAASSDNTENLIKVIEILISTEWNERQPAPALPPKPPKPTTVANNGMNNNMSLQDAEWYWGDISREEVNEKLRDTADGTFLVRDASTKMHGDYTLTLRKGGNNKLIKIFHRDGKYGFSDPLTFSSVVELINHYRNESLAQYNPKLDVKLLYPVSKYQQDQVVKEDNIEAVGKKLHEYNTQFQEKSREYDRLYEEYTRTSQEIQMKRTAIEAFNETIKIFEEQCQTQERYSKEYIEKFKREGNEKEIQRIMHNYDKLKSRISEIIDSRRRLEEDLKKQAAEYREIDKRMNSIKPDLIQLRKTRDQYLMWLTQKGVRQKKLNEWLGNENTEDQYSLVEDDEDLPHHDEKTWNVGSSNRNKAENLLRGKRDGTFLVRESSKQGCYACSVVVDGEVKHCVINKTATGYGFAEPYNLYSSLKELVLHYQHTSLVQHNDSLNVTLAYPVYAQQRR
In another test the target is PI3K β (p110β/p85α)(h) (Homo sapiens, UniProt P42338). Put plainly: Assay for phosphatidylinositol 3-kinase beta (PI3Kβ) activity, PI3K-HTRF kit. Conditions: TR-FRET; enzyme 0.725 μg/ml, 10 μM PIP2, 10 μM ATP. The procedure: [The source words this procedure for another target and says it was used here with some conditions changed.] as §1, §2
Chain of PI3K β (p110β/p85α)(h) (P42338 whole entry): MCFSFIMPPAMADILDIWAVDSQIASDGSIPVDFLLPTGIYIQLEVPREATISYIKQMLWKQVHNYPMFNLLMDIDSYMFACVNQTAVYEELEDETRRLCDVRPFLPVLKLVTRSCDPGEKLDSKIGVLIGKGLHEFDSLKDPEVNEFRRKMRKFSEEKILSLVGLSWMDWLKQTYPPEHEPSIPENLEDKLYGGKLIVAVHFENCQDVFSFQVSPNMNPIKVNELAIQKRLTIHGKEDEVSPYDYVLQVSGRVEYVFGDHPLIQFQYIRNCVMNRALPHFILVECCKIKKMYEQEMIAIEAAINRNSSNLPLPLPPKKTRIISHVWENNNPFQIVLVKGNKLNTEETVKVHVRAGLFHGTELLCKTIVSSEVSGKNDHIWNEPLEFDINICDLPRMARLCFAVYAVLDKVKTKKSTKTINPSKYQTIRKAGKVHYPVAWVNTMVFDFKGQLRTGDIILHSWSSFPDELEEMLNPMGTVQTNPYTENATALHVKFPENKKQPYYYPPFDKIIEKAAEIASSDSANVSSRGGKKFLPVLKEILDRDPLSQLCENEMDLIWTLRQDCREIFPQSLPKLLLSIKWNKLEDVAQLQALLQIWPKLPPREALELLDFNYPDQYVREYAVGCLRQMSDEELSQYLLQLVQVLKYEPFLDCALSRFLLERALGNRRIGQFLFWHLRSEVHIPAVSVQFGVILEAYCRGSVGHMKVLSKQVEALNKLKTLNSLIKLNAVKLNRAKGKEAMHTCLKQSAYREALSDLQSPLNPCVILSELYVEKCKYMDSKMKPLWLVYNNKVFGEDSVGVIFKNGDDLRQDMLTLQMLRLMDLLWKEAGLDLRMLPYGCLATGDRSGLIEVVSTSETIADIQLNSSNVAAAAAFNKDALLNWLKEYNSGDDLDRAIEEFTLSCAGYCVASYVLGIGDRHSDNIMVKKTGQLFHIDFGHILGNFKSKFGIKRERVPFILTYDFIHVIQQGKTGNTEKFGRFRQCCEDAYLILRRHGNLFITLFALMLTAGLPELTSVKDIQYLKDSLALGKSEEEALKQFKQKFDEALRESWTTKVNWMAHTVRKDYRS
Chain of PI3K β (p110β/p85α)(h) (P27986 whole entry partner): as the sequence (P27986 whole entry partner) above
as §3, with “2> […]” for “2>”

A further test addresses PI3Kδ (p110δ/p85α)(h) (Homo sapiens, UniProt O00329). Put plainly: Assay for phosphatidylinositol 3-kinase delta (PI3Kδ) activity, PI3K-HTRF kit. Conditions: TR-FRET; enzyme 0.725 μg/ml, 10 μM PIP2, 10 μM ATP. On the procedure: [The source words this procedure for another target and says it was used here with some conditions changed.] as §1, §2
as §3, with “2> […]” for “2>”

Chain of PI3Kγ (p120γ)(h) (P48736 whole entry): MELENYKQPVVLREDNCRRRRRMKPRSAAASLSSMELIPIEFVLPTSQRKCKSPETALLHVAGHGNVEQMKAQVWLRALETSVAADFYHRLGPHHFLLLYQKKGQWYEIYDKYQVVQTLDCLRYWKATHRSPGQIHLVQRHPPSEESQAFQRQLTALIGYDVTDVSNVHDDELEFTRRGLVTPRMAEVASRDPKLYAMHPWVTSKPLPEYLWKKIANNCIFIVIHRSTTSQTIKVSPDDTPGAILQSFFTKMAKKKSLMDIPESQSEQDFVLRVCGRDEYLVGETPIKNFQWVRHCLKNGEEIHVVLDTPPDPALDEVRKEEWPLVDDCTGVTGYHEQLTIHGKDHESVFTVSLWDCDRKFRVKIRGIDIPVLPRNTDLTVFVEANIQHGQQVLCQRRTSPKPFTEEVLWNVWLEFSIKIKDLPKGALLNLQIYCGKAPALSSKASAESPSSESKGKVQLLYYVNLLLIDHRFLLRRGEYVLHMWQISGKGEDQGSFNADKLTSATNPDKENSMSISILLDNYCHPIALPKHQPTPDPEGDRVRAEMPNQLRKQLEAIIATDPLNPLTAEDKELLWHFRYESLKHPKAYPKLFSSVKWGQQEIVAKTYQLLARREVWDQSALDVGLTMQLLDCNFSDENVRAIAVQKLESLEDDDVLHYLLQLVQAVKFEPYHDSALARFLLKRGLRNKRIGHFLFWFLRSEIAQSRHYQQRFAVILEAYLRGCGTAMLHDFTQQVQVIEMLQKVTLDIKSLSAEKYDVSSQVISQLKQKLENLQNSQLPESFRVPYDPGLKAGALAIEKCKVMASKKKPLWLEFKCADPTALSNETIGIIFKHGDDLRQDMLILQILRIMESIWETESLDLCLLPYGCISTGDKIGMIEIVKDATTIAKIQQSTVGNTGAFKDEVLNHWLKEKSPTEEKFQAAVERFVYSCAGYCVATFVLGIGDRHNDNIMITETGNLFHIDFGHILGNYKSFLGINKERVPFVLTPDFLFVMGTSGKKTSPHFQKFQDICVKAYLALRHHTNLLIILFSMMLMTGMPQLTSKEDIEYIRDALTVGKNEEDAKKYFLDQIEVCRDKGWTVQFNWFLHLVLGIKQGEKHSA
Chain of PI3Kδ (p110δ/p85α)(h) (O00329 whole entry): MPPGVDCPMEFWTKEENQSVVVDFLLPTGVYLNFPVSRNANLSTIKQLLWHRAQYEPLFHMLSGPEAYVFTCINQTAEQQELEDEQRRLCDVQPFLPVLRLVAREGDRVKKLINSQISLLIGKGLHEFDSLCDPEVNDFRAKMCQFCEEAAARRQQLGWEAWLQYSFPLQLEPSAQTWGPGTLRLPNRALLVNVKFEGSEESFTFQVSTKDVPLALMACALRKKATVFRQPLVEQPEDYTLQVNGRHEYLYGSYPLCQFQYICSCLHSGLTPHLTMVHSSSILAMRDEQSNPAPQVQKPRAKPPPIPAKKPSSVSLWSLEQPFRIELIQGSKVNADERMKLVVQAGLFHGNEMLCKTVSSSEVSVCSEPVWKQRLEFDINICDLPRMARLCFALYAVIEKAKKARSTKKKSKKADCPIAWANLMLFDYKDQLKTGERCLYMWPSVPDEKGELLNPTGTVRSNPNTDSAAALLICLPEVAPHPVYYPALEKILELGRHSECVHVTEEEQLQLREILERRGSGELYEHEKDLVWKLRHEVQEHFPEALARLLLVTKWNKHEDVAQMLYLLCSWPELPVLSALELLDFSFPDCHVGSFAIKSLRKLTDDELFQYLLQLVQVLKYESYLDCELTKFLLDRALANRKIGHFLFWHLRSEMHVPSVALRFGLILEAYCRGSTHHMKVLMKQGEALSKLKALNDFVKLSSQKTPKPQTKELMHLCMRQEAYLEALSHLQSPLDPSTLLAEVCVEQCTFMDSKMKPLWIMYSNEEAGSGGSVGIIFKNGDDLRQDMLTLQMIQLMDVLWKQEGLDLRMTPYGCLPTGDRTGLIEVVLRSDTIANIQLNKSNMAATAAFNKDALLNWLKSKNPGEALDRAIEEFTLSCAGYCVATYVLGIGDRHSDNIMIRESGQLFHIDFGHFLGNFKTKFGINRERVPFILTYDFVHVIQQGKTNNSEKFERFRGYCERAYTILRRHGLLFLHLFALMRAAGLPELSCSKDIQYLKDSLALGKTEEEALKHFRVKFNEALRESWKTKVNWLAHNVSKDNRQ
Chain of PI3Kδ (p110δ/p85α)(h) (P27986 whole entry partner): as the sequence (P27986 whole entry partner) above

Usually IC50 stands for the midpoint of a concentration-inhibition curve. A high value points to weaker potency in that assay. As to `COc1ccc(C#Cc2cncc3cc(/C=C4\SC(=O)NC4=O)oc23)cc1` [Example 437, (Z)-5-([7-{(4-Methoxyphenyl)ethynyl}furo[3,2-c]pyridin-2-yl]methylene)thiazolidine-2,4-dione], the IC50 was 9 nM at PI3Kγ (p120γ)(h), 8 nM against PI3Kα (p110α/p85α)(h), > 10000 nM on PI3K β (p110β/p85α)(h) and > 10000 nM against PI3Kδ (p110δ/p85α)(h).
In the case of `O=C1NC(=O)/C(=C/c2cc3cncc(C#Cc4ccsc4)c3o2)S1` [Example 528, (Z)-5-[{7-(Thiophen-3-ylethynyl)furo[3,2-c]pyridin-2-yl}methylene]thiazolidine-2,4-dione], the IC50 was found to be 24 nM against PI3Kγ (p120γ)(h), 8 nM at PI3Kα (p110α/p85α)(h), 638 nM against PI3K β (p110β/p85α)(h) and 92 nM against PI3Kδ (p110δ/p85α)(h).
Turning to `O=C1NC(=O)/C(=C/c2cc3cncc(-c4cc5ccccc5s4)c3o2)S1` [Example 14, (Z)-5-[{7-(Benzo[b]thiophen-2-yl)furo[3,2-c]pyridin-2-yl}methylene]thiazolidine-2,4-dione], the IC50 at PI3Kγ (p120γ)(h) is 29 nM; against PI3Kα (p110α/p85α)(h) it was 6 nM; at PI3K β (p110β/p85α)(h) it was > 10000 nM; against PI3Kδ (p110δ/p85α)(h), 149 nM.
For `O=C1NC(=S)S/C1=C\c1cc2cncc(-c3ccc4c(c3)CCO4)c2o1` [Example 187, (Z)-5-[{7-(2,3-Dihydrobenzofuran-5-yl)furo[3,2-c]pyridin-2-yl}methylene]-2-thioxothiazolidin-4-one], the IC50 is 10 nM at PI3Kγ (p120γ)(h), 5 nM against PI3Kα (p110α/p85α)(h), > 10000 nM at PI3K β (p110β/p85α)(h) and > 10000 nM against PI3Kδ (p110δ/p85α)(h).
For `O=C1NC(=O)/C(=C/c2cc3cncc(C#Cc4ccccc4C(F)(F)F)c3o2)S1` [Example 526], the IC50 at PI3Kγ (p120γ)(h) was 23 nM; on PI3Kα (p110α/p85α)(h) it was 6 nM; against PI3K β (p110β/p85α)(h) it was 1210 nM; against PI3Kδ (p110δ/p85α)(h), 33 nM.
Take `COc1ncc(-c2cncc3cc(/C=C4\SC(=S)NC4=O)oc23)cc1C#N` [Example 328, (Z)-2-Methoxy-5-[2-{(4-oxo-2-thioxothiazolidin-5-ylidene)methyl}furo[3,2-c]pyridin-7-yl]nicotinonitrile]: the concentration for half-maximal inhibition (IC50) is 56 nM on PI3Kγ (p120γ)(h), 15 nM against PI3Kα (p110α/p85α)(h), 630 nM against PI3K β (p110β/p85α)(h) and > 10000 nM on PI3Kδ (p110δ/p85α)(h).
With `O=C1NC(=O)/C(=C/c2cc3cncc(-c4cccc(NS(=O)(=O)c5ccccc5)c4)c3o2)S1` [Example 141, (Z)—N-(3-[2-{(2,4-Dioxothiazolidin-5-ylidene)methyl}furo[3,2-c]pyridin-7-yl]phenyl)benzenesulfonamide], the IC50 is 108 nM against PI3Kγ (p120γ)(h), 21 nM against PI3Kα (p110α/p85α)(h), 23 nM at PI3K β (p110β/p85α)(h) and 51 nM against PI3Kδ (p110δ/p85α)(h).
As to `COc1ccc(-c2cncc3cc(/C=C4\SC(=O)NC4=O)oc23)cc1OC` [Example 33, (Z)-5-[{7-(3,4-Dimethoxyphenyl)furo[3,2-c]pyridin-2-yl}methylene]thiazolidine-2,4-dione], the concentration for half-maximal inhibition (IC50) against PI3Kγ (p120γ)(h) amounted to 9 nM; against PI3Kα (p110α/p85α)(h), 8 nM; at PI3K β (p110β/p85α)(h) it was 77 nM; against PI3Kδ (p110δ/p85α)(h) it was 37 nM.
Regarding `N#Cc1ccccc1C#Cc1cncc2cc(/C=C3\SC(=S)NC3=O)oc12` [Example 513, (Z)-2-([2-{(4-Oxo-2-thioxothiazolidin-5-ylidene)methyl}furo[3,2-c]pyridin-7-yl]ethynyl)benzonitrile], the concentration for half-maximal inhibition (IC50) amounted to 11 nM at PI3Kγ (p120γ)(h), 4 nM against PI3Kα (p110α/p85α)(h), 715 nM on PI3K β (p110β/p85α)(h) and 74 nM against PI3Kδ (p110δ/p85α)(h).
With `Cc1cc(-c2cncc3cc(/C=C4\SC(=O)NC4=O)oc23)ccc1S(=O)(=O)N1CCOCC1` [Example 307, (Z)-5-([7-{3-Methyl-4-(morpholinosulfonyl)phenyl}furo[3,2-c]pyridin-2-yl]methylene)thiazolidine-2,4-dione], the half-maximal inhibitory concentration (IC50) was found to be 15 nM on PI3Kγ (p120γ)(h), 14 nM on PI3Kα (p110α/p85α)(h), 1940 nM against PI3K β (p110β/p85α)(h) and 52 nM on PI3Kδ (p110δ/p85α)(h).
Consider `COC(=O)c1ccccc1C#Cc1cncc2cc(/C=C3\SC(=S)NC3=O)oc12` [Example 558, (Z)-Methyl 2-([2-{(4-oxo-2-thioxothiazolidin-5-ylidene)methyl}furo[3,2-c]pyridin-7-yl]ethynyl)benzoate], for which the IC50 against PI3Kγ (p120γ)(h) was determined as 10 nM; against PI3Kα (p110α/p85α)(h), 3 nM; on PI3K β (p110β/p85α)(h), 468 nM; on PI3Kδ (p110δ/p85α)(h) it was 41 nM.
For the compound `Cc1cc(-c2cncc3cc(/C=C4\SC(=O)NC4=O)oc23)ccc1S(=O)(=O)NC(C)(C)C` [Example 310, (Z)—N-tert-Butyl-4-[2-{(2,4-dioxothiazolidin-5-ylidene)methyl}furo[3,2-c]pyridin-7-yl]-2-methylbenzenesulfonamide], the 50% inhibitory concentration (IC50) stood at 12 nM on PI3Kγ (p120γ)(h), 11 nM against PI3Kα (p110α/p85α)(h), 1940 nM against PI3K β (p110β/p85α)(h) and 220 nM on PI3Kδ (p110δ/p85α)(h).
For the compound `O=C1NC(=O)/C(=C/c2cc3cncc(-c4ccc(S(=O)(=O)N5CCCCC5)cc4)c3o2)S1` [Example 262, (Z)-5-([7-{4-(Piperidin-1-ylsulfonyl)phenyl}furo[3,2-c]pyridin-2-yl]methylene)thiazolidine-2,4-dione], the IC50 at PI3Kγ (p120γ)(h) is 38 nM; against PI3Kα (p110α/p85α)(h), 33 nM; on PI3K β (p110β/p85α)(h), > 10000 nM; against PI3Kδ (p110δ/p85α)(h), > 10000 nM.
As to `O=C1NC(=O)/C(=C/c2cc3cncc(-c4cccc(OCC(F)(F)F)c4)c3o2)S1` [Example 110, (Z)-5-([7-{3-(2,2,2-Trifluoroethoxyl)phenyl}furo[3,2-c]pyridin-2-yl]methylene)thiazolidine-2,4-dione], the IC50 against PI3Kγ (p120γ)(h) is 96 nM; at PI3K β (p110β/p85α)(h) it was 293 nM; on PI3Kδ (p110δ/p85α)(h) it was 4230 nM.
